One sequence from paper PMC3949714 (PLoS ONE, 2014) can be followed below.

Where no end group is shown, it is not given here.

Data set [1] is described as follows: RP-HPLC retention time (read by the paper as polarity). The class given is physicochemical. Conditions: incubation of BE 1-31; Jupiter C4 300 A column, water/acetonitrile gradient with 0.1% formic acid, 200 µl/min, MS TIC detection. Here is the method: An Agilent binary HPLC composing of an Agilent 1100 LC pump, an Agilent 1100 well plate auto-sampler (Agilent Technologies, Santa Clara, CA, USA) and a Jupiter 5 μ (C4, 300 A, 150×2.00 mm, 5 μ) RP HPLC column (Phenomenex, Torrance, CA, USA) were used for separation. The mobile phase flow rate was 200 µl/min and the volume of injection was 20 µL. The separations were performed using a binary solvent gradient; water (Milli-Q; Millipore Corporation, Bedford, MA) which contained 0.1% v/v formic acid was used as the solvent A and acetonitrile (Merck KGaA, Darmstadt, Germany) which contained 0.1% v/v formic acid (Nuplex industries Pty Ltd. (NSW, Australia) was used as the solvent B. The chromatographic separation was achieved using the gradient shown in Table 1.
An API 3000 tandem mass spectrometer equipped with a turbo ion spray was used as the detector. Detection was performed in total ion current (TIC) mode (MS1/Q1), in positive mode, within the range 200–3000 amu. The data were acquired and processed by Analyst 1.5 software (Applied Biosystems, Foster city, CA, USA). Mass spectra were obtained using: declustering potential (DF) of 16 V, focusing potential (FP) of 120 V, Entrance potential (EP) of 10 V, and Ion spray voltage (IS) of 5000 V. Structure identity of fragments was performed using the respective mass/charge (m/z) values of each peptide metabolite. Direct flow injections were carried out using Model 11 plus Harvard Syringe pump (Harvard Apparatus Inc, Holliston, MA, USA).

Data set [2] deals with T1, mu-opioid receptors (MOR) (Mus musculus, UniProt P42866).
T1 construct: FLAG; expressed in transfected cells
The data set can be described thus: cell-based. The class given is cell-based, murine.

For data set [3], the target named is T2, delta-opioid receptors (DOR).
T2 construct: expressed in transfected cells
The data set is classed as cell-based. Conditions: read-out: IC50 for the inhibition of forskolin induced cAMP in HEK-DOP cells.

Data set [4] is described as follows: Biotransformation in homogenised inflamed tissue at pH 5.5 (LC/MS, mean residence time).

T1 sequence (P42866 whole entry): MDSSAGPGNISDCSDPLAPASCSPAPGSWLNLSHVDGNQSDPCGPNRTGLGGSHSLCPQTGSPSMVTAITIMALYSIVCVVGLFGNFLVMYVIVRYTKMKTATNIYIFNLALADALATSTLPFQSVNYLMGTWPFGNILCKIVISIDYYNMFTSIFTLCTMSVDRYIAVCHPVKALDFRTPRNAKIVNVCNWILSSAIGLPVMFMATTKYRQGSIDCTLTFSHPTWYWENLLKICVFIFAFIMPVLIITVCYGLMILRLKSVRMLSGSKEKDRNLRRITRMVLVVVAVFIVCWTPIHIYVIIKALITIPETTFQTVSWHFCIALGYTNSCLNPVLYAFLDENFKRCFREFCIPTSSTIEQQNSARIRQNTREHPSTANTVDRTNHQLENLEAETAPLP

On to “YGGFMTSEKSQTPLVTLFKNAIIKNVHKKGQ [BE 1–31, Beta-endorphin]”, for which the RT in data set [1] is reported as 25.8 min. Besides, in data set [2], the “Effect of naloxone pre-treatment on cAMP inhibition through MOR” value was “inhibited by naloxone” and the IC50 turned out to be 24 nM. Besides, the IC50 in data set [3] amounted to 57 nM. In data set [4] (incubation of BE 1-31 (115 µM) in rat inflamed tissue homogenate, MES pH 5.5, 37°C, 120 min, AUMC/AUC of LC/MS peak intensity), the MRT was found to be 2.9. Moreover, in data set [4] (rat inflamed paw tissue homogenate (1 g/10 ml MES buffer) pH 5.5, 37°C, 115 µM peptide, LC/MS), the “Peak intensity observed (remaining) at 15 min” value is 7.5%.
